The values below come from patent publication US10316017B2, “COT modulators and methods of use thereof” (Gilead Sciences, Inc., priority 2015, dated 2019).

pEC50, pIC50: −log10 of the molar value. Where two headings read alike, the source gives them in different places. Where only a bound is given, the exact number is not on record here.

In assay [1] the target is T1, human Cot catalytic domain (30-397 amino acids) (Homo sapiens, UniProt P41279).
T1 construct: Purified recombinant human Cot catalytic domain (30-397 amino acids) was purchased from Cama Biosciences; purchased Cama Biosciences (so in the source)
Kind of assay: High Throughput Cot Biochemical Assay (KinEASE TR-FRET). Particulars: read-out: IC50 HTRF. In short, it runs like this:
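TR-FRET readout: Eu-labeled phospho-specific antibody binds XL665-tagged STK3 peptide after phosphorylation by Cot (aa 30-397, 5 nM). Conditions: 400 μM ATP, 1 μM peptide, MOPS pH 7.0 buffer with MgOAc, DTT, BSA, NP-40, glycerol; 0.1% DMSO.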

Assay [2] deals with TNFα production in LPS-stimulated human monocytes. Kind of assay: Cot Monocyte TNFα Cell Based Assay. The following applies: Homo sapiens, Monocyte, read-out: EC50 TNF. In short, it runs like this:
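TR-FRET read-out of total secreted TNFα, normalized as % control (unstimulated = 0%, LPS-stimulated = 100%). Cells (5,000/well) were exposed to compound 1 h at 37 °C, then to 50 pg/ml LPS for a further 4 h.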

The mark [3] stands for this setting: Cot KinEASE TR-FRET (HTRF) biochemical assay, 400 μM ATP.
[4] abbreviates: TNFα in LPS-stimulated human monocytes.
The mark [5] stands for this setting: Cot KinEASE TR-FRET, 400 μM ATP.
[6] abbreviates: LPS-stimulated human monocytes, TNFα TR-FRET.
Where [7] appears, read: Cot biochemical HTRF (KinEASE TR-FRET) assay.

T1 sequence (P41279 30-397): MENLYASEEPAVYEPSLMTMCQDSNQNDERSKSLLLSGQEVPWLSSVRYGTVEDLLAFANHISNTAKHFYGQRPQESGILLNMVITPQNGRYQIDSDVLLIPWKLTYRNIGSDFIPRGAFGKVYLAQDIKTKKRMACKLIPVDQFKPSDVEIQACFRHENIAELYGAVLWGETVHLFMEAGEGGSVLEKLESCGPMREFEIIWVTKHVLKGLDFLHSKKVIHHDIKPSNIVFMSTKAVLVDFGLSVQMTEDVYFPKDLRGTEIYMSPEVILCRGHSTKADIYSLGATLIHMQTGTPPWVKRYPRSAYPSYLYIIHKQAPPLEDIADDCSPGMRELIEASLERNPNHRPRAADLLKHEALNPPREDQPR

A word on the pIC50: it is the negative decadic logarithm of the IC50, by convention in mol/L. In general, pEC50 refers to the EC50 on a negative log10 scale, so that one unit is a factor of ten. As to `CC(C)(C)CNc1c(C#N)cnc2c(Br)cc(N[C@@H](c3cccc(C(N)=O)c3)c3cn(C4CC4)nn3)cc12` [Example 54, (S)-3-(((8-bromo-3-cyano-4-(neopentylamino)quinolin-6-yl)amino) (1-cyclopropyl-1H-1,2,3-triazol-4-yl)methyl)benzamide], in assay [1] (setting [3]), the pIC50 is 8.70. Besides, the pEC50 in assay [2] (setting [4]) was 6.57.

Turning to `CC(C)(C)CNc1c(C#N)cnc2c(Cl)cc(N[C@@H](c3ccc(F)c(C(N)=O)c3)c3cn(C4(C(F)(F)F)CC4)nn3)cc12` [Example 1117, (S)-5-(((8-chloro-3-cyano-4-(neopentylamino)quinolin-6-yl)amino)(1-(1-(trifluoromethyl)cyclopropyl)-1H-1,2,3-triazol-4-yl)methyl)-2-fluorobenzamide], the negative-log IC50 (pIC50) in assay [1] (setting [5]) was 7.54. The negative logarithm of the EC50 (pEC50) in assay [2] (setting [6]) was 6.25.

`Cc1c(C#N)cccc1[C@H](Nc1cc(Cl)c2ncc(C#N)c(NCC(C)(C)C)c2c1)c1cn(C2(CF)CC2)nn1` [Example 1100, (S)-8-chloro-6-(((3-cyano-2-methylphenyl)(1-(1-(fluoromethyl)cyclopropyl)-1H-1,2,3-triazol-4-yl)methyl)amino)-4-(neopentylamino)quinoline-3-carbonitrile]: the pIC50 in assay [1] (setting [5]) was 8.40. In addition, in assay [2] (setting [6]), the negative logarithm of the EC50 (pEC50) is 7.35.

Turning to `CC(C)(C)N1CCC(n2cc([C@@H](Nc3cc(Cl)c4ncc(C#N)c(Nc5cc(F)cc(F)c5)c4c3)c3ccc(Cl)cc3)nn2)CC1` [Example 764, (S)-6-(((1-(1-(tert-butyl)piperidin-4-yl)-1H-1,2,3-triazol-4-yl)(4-chlorophenyl)methyl)amino)-8-chloro-4-((3,5-difluorophenyl)amino)quinoline-3-carbonitrile], the pIC50 in assay [1] (setting [7]) is 7.42. Further, the negative-log EC50 (pEC50) in assay [2] (setting [4]) is 5.49.

As for `Cn1cc(Nc2c(C#N)cnc3c(Cl)cc(N[C@@H](c4ccccc4)c4cn(C5CCN(C(C)(C)C)CC5)nn4)cc23)ccc1=O` [Example 484, (S)-6-(((1-(1-(tert-butyl)piperidin-4-yl)-1H-1,2,3-triazol-4-yl)(phenyl)methyl)amino)-8-chloro-4-((1-methyl-6-oxo-1,6-dihydropyridin-3-yl)amino)quinoline-3-carbonitrile], the negative-log IC50 (pIC50) in assay [1] (setting [7]) is 6.43. Besides, the pEC50 in assay [2] (setting [4]) was under 5.00.

As for `N#Cc1cnc2c(Cl)cc(N[C@@H](c3ccccc3)c3cn(CCCN4CCCC4)nn3)cc2c1Nc1ccc(F)c(Cl)c1` [Example 545, (S)-8-chloro-4-((3-chloro-4-fluorophenyl)amino)-6-((phenyl (1-(3-(pyrrolidin-1-yl)propyl)-1H-1,2,3-triazol-4-yl)methyl)amino)quinoline-3-carbonitrile], the negative-log IC50 (pIC50) in assay [1] (setting [7]) is 8.52. Further, the pEC50 in assay [2] (setting [4]) is 7.06.

Take `CC[C@@H](Nc1c(C#N)cnc2c(Cl)cc(N[C@@H](c3cccc(N(C)C(C)=O)c3)c3c[nH]nn3)cc12)c1ccccc1` [Example 563, N-(3-((S)-((8-chloro-3-cyano-4-(((R)-1-phenylpropyl)amino)quinolin-6-yl)amino)(1H-1,2,3-triazol-4-yl)methyl)phenyl)-N-methylacetamide]: the pIC50 in assay [1] (setting [7]) is 8.70. In addition, the pEC50 in assay [2] (setting [4]) was 6.55.

For `CC(C)(C)N1CCC(n2cc([C@@H](Nc3cc(Cl)c4ncc(C#N)c(Nc5c(F)cc(F)cc5F)c4c3)c3ccccc3)nn2)CC1` [Example 473, (S)-6-(((1-(1-(tert-butyl)piperidin-4-yl)-1H-1,2,3-triazol-4-yl)(phenyl)methyl)amino)-8-chloro-4-((2,4,6-trifluorophenyl)amino) quinoline-3-carbonitrile], the pIC50 in assay [1] (setting [7]) is 7.23. Moreover, the pEC50 in assay [2] (setting [4]) was 6.11.

On to `CN1CC(n2cc([C@@H](Nc3cc(Cl)c4ncc(C#N)c(Nc5ccc(F)c(Cl)c5)c4c3)c3ccccc3)nn2)CC(F)(F)C1` (stereo partly drawn) [Example 736, 8-chloro-4-((3-chloro-4-fluorophenyl)amino)-6-(((1S)-(1-(5,5-difluoro-1-methylpiperidin-3-yl)-1H-1,2,3-triazol-4-yl)(phenyl)methyl)amino) quinoline-3-carbonitrile], for which the pIC50 in assay [1] (setting [7]) was 7.39. In addition, in assay [2] (setting [4]), the negative-log EC50 (pEC50) was 6.42.

Turning to `[2H][C@](Nc1cc(C#N)c2ncc(C#N)c(N[C@H](CC)c3ccccc3)c2c1)(c1cccc(C#N)c1)c1cn(C2CC2)nn1` [Example 243, 6-(((S)-(3-cyanophenyl)(1-cyclopropyl-1H-1,2,3-triazol-4-yl)methyl-d)amino)-4-(((R)-1-phenylpropyl)amino)quinoline-3,8-dicarbonitrile], in assay [1] (setting [3]), the pIC50 was 8.70. The pEC50 in assay [2] (setting [4]) was 7.39.

Regarding `CC(C)(C)N1CCC(n2cc([C@@H](Nc3cc(Cl)c4ncc(C#N)c(Nc5ccc(F)c(Cl)c5)c4c3)c3cccc(C(=O)N4CC(F)(F)C4)c3)nn2)CC1` [Example 645, (S)-6-(((1-(1-(tert-butyl)piperidin-4-yl)-1H-1,2,3-triazol-4-yl)(3-(3,3-difluoroazetidine-1-carbonyl)phenyl)methyl)amino)-8-chloro-4-((3-chloro-4-fluorophenyl)amino)quinoline-3-carbonitrile], the negative logarithm of the IC50 (pIC50) in assay [1] (setting [7]) is 8.70. Also, the negative logarithm of the EC50 (pEC50) in assay [2] (setting [4]) was 7.39.

For the compound `CN(C)Cc1cccc([C@H](Nc2cc(Cl)c3ncc(C#N)c(Nc4ccc(F)c(Cl)c4)c3c2)c2cn(C3CCN(C(C)(C)C)CC3)nn2)c1` [Compound 18], the pIC50 in assay [1] (setting [3]) was 8.15. In assay [2] (setting [4]), the pEC50 was 5.91.

For `[2H][C@](Nc1cc(-c2cn[nH]c2)c2ncc(C#N)c(NCC(C)(C)C)c2c1)(c1ccc(F)cc1)c1cn(C2CC2)nn1` [Example 168, (S)-6-(((1-cyclopropyl-1H-1,2,3-triazol-4-yl)(4-fluorophenyl)methyl-d)amino)-4-(neopentylamino)-8-(1H-pyrazol-4-yl)quinoline-3-carbonitrile], in assay [1] (setting [3]), the negative-log IC50 (pIC50) was 5.69. Also, the pEC50 in assay [2] (setting [4]) is 5.02.

For the compound `[2H][C@](Nc1cc(C#N)c2ncc(C#N)c(N[C@H](CC)c3ccccc3)c2c1)(c1ccc(F)cc1)c1cn(C2CC2)nn1` [Example 285, 6-(((S)-(1-cyclopropyl-1H-1,2,3-triazol-4-yl)(4-fluorophenyl)methyl-d)amino)-4-(((R)-1-phenylpropyl)amino) quinoline-3,8-dicarbonitrile], the negative logarithm of the IC50 (pIC50) in assay [1] (setting [3]) is 8.52. Besides, the negative logarithm of the EC50 (pEC50) in assay [2] (setting [4]) is 7.35.

As to `CC[C@@H](Nc1c(C#N)cnc2c(Cl)cc(N[C@@H](c3ccccc3)c3cn(C4CCN(C(C)(C)C)CC4)nn3)cc12)c1ccccc1` [Example 629, 6-(((S)-(1-(1-(tert-butyl)piperidin-4-yl)-1H-1,2,3-triazol-4-yl)(phenyl)methyl)amino)-8-chloro-4-(((R)-1-phenylpropyl)amino)quinoline-3-carbonitrile], in assay [1] (setting [7]), the negative-log IC50 (pIC50) was 8.52. The pEC50 in assay [2] (setting [4]) is 7.14.

Take `N#Cc1cnc2c(Cl)cc(N[C@@H](c3ccccc3)c3c[nH]nn3)cc2c1Nc1ccc(Cl)c(Cl)c1F` [Example 644, (S)-8-chloro-4-((3,4-dichloro-2-fluorophenyl)amino)-6-((phenyl(1H-1,2,3-triazol-4-yl)methyl)amino)quinoline-3-carbonitrile]: in assay [1] (setting [7]), the pIC50 was 6.88. The pEC50 in assay [2] (setting [4]) is 5.96.

As to `CC(C)(C)CNc1c(C#N)cnc2c(Cl)cc(N[C@H](c3cn(C4(C(F)(F)F)CC4)nn3)c3cccc(C(N)=O)c3F)cc12` [Example 1115, (S)-3-(((8-chloro-3-cyano-4-(neopentylamino)quinolin-6-yl)amino)(1-(1-(trifluoromethyl)cyclopropyl)-1H-1,2,3-triazol-4-yl)methyl)-2-fluorobenzamide], the pIC50 in assay [1] (setting [5]) was 8.22. Moreover, the pEC50 in assay [2] (setting [6]) is 6.75.

As for `Cc1ccc(Nc2c(C#N)cnc3c(Cl)cc(N[C@@H](c4ccc(Cl)cc4)c4cn(C5CCN(C(C)(C)C)CC5)nn4)cc23)cc1` [Example 742, (S)-6-(((1-(1-(tert-butyl)piperidin-4-yl)-1H-1,2,3-triazol-4-yl)(4-chlorophenyl)methyl)amino)-8-chloro-4-(p-tolylamino)quinoline-3-carbonitrile], the pIC50 in assay [1] (setting [7]) was 6.50. The negative-log EC50 (pEC50) in assay [2] (setting [4]) was 5.75.

For `Cc1c(-c2cncn2C)cccc1[C@H](Nc1cc(Cl)c2ncc(C#N)c(NCC(C)(C)C)c2c1)c1cn(C2(C(F)(F)F)CC2)nn1` [Example 1120, (S)-8-chloro-6-(((2-methyl-3-(1-methyl-1H-imidazol-5-yl)phenyl)(1-(1-(trifluoromethyl)cyclopropyl)-1H-1,2,3-triazol-4-yl)methyl)amino)-4-(neopentylamino)quinoline-3-carbonitrile], in assay [1] (setting [5]), the pIC50 is 8.22. Besides, the pEC50 in assay [2] (setting [6]) was 7.06.

Consider `CC[C@@H](Nc1c(C#N)cnc2c(C#N)cc(N[C@@H](c3cccc(-c4ncco4)c3)c3cn(C4CC4)nn3)cc12)c1ccccc1` [Example 941, 6-(((S)-(1-cyclopropyl-1H-1,2,3-triazol-4-yl) (3-(oxazol-2-yl)phenyl)methyl)amino)-4-(((R)-1-phenylpropyl)amino) quinoline-3,8-dicarbonitrile], for which, in assay [1] (setting [5]), the negative-log IC50 (pIC50) was 9.00. Further, the negative logarithm of the EC50 (pEC50) in assay [2] (setting [6]) is 7.28.

Turning to `[2H][C@](Nc1cc(Cl)c2ncc(C#N)c(NCCc3ccccn3)c2c1)(c1ccc(F)cc1)c1cn(C2CC2)nn1` [Example 270, (S)-8-chloro-6-(((1-cyclopropyl-1H-1,2,3-triazol-4-yl)(4-fluorophenyl)methyl-d)amino)-4-((2-(pyridin-2-yl)ethyl)amino)quinoline-3-carbonitrile], the pIC50 in assay [1] (setting [3]) was 7.02. For the same compound, the pEC50 in assay [2] (setting [4]) was 5.64.
